Measured values taken from publication PMC2120418 (The Journal of Cell Biology, 1995).

Columns and labels:
[1] = tested on: rat CCK-A receptors on CHO-CCKR cells; assay: Indirect immunofluorescence of surface CCK receptor after agonist occupation; type: cell-based, rat receptor in CHO cells; conditions: 10 nM CCK-8, 30 min, 37C
[2] = tested on: dispersed rat pancreatic acini; conditions: core peptide for the probes; cited from earlier work

Substance | Surface immunolabeling of the receptor, level relative to control cells [1] [%] | Biological activity of core peptide [2]
CCK-8: native cholecystokinin hormone, nonfluorescent agonist | 49 | –
GIy-[(NIe2S.31)CCK26-33] | – | fully biologically active
